# Results as given in article PMC2785468, “Androgen Receptor Mutations Associated with Androgen Insensitivity Syndrome: A High Content Analysis Approach Leading to Personalized Medicine” (PLoS ONE, 2009).
# Target: T1, AR-P766S (Homo sapiens, UniProt P10275, P767S)
# T1 construct: expressed in transfected cells
# T1 sequence (P10275 1-920 P767S): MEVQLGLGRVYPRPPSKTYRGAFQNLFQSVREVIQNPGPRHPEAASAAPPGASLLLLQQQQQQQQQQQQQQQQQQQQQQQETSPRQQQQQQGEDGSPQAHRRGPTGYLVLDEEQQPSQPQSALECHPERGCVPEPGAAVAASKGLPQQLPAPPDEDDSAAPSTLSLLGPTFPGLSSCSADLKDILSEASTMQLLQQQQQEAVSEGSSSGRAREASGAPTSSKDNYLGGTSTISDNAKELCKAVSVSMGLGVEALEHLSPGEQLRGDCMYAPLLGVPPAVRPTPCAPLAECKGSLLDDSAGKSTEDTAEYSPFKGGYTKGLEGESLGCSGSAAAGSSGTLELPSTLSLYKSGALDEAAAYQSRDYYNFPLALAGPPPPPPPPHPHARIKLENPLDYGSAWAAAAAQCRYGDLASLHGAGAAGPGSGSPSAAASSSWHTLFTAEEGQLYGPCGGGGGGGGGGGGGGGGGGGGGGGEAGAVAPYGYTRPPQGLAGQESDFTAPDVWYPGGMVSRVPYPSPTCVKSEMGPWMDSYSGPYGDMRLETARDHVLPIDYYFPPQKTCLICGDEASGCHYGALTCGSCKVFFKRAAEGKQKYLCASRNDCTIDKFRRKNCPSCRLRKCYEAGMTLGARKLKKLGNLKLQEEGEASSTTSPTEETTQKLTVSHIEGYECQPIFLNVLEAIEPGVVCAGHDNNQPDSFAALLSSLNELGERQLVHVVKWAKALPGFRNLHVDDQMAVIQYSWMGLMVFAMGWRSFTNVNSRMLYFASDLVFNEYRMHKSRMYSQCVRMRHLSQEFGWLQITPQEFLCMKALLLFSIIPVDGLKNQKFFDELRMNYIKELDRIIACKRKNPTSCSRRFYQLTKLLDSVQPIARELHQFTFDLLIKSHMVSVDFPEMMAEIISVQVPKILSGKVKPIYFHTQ
# Type: cell-based
# Settings: HeLa P766S
# Method: To determine the global effect of the various AIS mutations on AR signaling, each was analyzed using HCA. This technology allows simultaneous quantification of AR protein expression, nuclear translocation, subnuclear patterning, and transcriptional activity. The analysis was done in HeLa cell lines stably transfected with wild type or mutant ARs fused with green fluorescent protein, or using AR immunofluorescence in primary cultures of genital skin fibroblasts generated from foreskin biopsies of historical AIS patients, or of normal neonates undergoing circumcision at birth. To prevent the effects of receptor over-expression, stable HeLa cells were carefully selected to express AR levels similar to LNCaP as previously described. Prior to ligand treatment, HeLa cells were transfected with the pARR2PB-dsRED2skl reporter plasmid, consisting of the AR responsive promoter ARR2PB [31] driving expression of the red fluorescent protein reporter dsRED2skl engineered to target peroxisomes.
# For studies utilizing HeLa GFP-AR cell lines, twenty-four hours before transfection with pARR2PB-dsRED2skl, cells were plated onto 100 mm plastic dishes in medium supplemented with 5% charcoal-stripped and dialyzed-FBS. Transient introduction of the pARR-2PB-dsRED2skl reporter construct was performed using 6.0 µg reporter plasmid and 6.0 µg carrier DNA (BlueScript, Stratagene, San Diego, CA) using Transfectin (Biorad) following standard protocols. After 8-hour incubation, DNA/lipid complexes were removed. Cells were then trypsinized and replated at 10,000 cells per well in Nunc poly-D-lysine treated 96-well optical glass bottom plates and incubated an additional 12 hours to allow for cell adhesion. […] Compound dilutions and final addition to multi-well plates were performed using a Beckman Biomek NX robotic platform to ensure repeatability from experiment to experiment. After incubation was complete, using the Biomek NX robot, plates were washed with PBS and fixed for 20 min at RT in 4% formaldehyde prepared in CSK buffer (80 mM potassium PIPES, pH 6.8, 5 mM EGTA, 2 mM MgCl2). After fixation, cells were briefly permeabilized (5 min) with 0.5% Triton-X and prepared for imaging by washing in PBS, aspirating the washed solution, and adding a 1 ng/ml DAPI solution to stain DNA and a generic protein stain (CellMask, Invitrogen) to facilitate cell and nuclear image segmentation. Cells were imaged in PBS.
# Cells were imaged using the Cell Lab IC-100 Image Cytometer (IC-100; Beckman Coulter) platform that consists of 1) Nikon Eclipse TE2000-U Inverted Microscope (Nikon; Melville, NY); 2) Chroma 82000 triple band filter set (Chroma; Brattleboro, VT); 3) an imaging camera: Hamamatsu ORCA-ER Digital CCD camera (Hamamatsu; Bridgewater, NJ); and 4) a focusing camera: Photonics COHU Progressive scan camera (Photonics; Oxford, MA). […] In general, 49 to 64 images were captured per well for image analysis.
# While our initial AR studies using HTM were based upon CytoShop (Beckman-Coulter), [15], [33], these approaches were refined in the current work with the more robust server-client Pipeline Pilot image analysis platform (Basic and Advanced Imagine Collections, Pipeline Pilot 7.5, Accelrys, San Diego). Initially, the background signal was removed from all images using plate- and channel-specific correction images, generated by the sum projection of >600 randomly selected images for each channel from the image set. This allows for a pixel-by-pixel background subtraction that compensates any consistent uneven background artifacts in the image set. Furthermore, users are able to customize the degree of background subtraction by applying a multiplier to each correction image, useful for identification of objects such as nuclei or cell borders. After background subtraction, nuclear masks were generated using a combination of non-linear least squares and watershed-from-markers image manipulations of the DAPI images (Fig. 1B).
structure (smiles),measurement,setting,value
"C[C@@H]1CC2=CC(=O)CC[C@@H]2[C@H]2CC[C@@]3(C)[C@@H](CC[C@]3(C)O)[C@@H]21 [Mb, Mibolerone]","Nuclear Translocation, Max",% signal present in the nucleus,78.9±1.5%
same,"Hyperspeckling, Max",absolute numerical measurement,785±30
same,"Transcriptional Activity, Max","pARR2PB-dsRED2skl reporter, absolute numerical measurement",98±2.2
